Measurements: patent US6355799B1, “Substituted benzene compounds, process for their preparation, and herbicidal and defoliant compositions containing them” (ISK Americas Incorporated, priority 1997, dated 2002)

How the values were obtained:
Assay type in all cases: in vivo
[1] = test system: field corn (Zea mays L., var. Dekalb 535, CORN); assay: Pre-emerge test, crop safety; details: crop damage rating 0-100, 14 days after application
How it was run: (§1)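 Sandy loam pots; pre-emerge: sown 1 d pre-spray, surface-watered after, then bottom-watered. Post-emerge: sown 8–21 d before, 2–3 leaf stage, + 0.25% v/v NIS, bottom-watered. Acetone, 187 l/ha track spray, 15–1000 g ai/ha. 0–100 injury score, day 14.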

[2] = test system: upland rice (Oryza sp., var. Tebonnet, RICE); assay: Pre-emerge test, crop safety; details: crop damage rating 0-100, 14 days after application
How it was run: as §1

[3] = test system: field corn (Zea mays L., var. Dekalb 535, CORN); assay: Post-emerge test, crop safety; details: post-emerge, 14 days after application, rating scale 0-100
How it was run: as §1

[4] = test system: upland rice (Oryza sp., var. Tebonnet, RICE); assay: Post-emerge test, crop safety; details: post-emerge, 14 days after application, rating scale 0-100
How it was run: as §1

[5] = test system: barnyardgrass (Echinochloa crus-galli, ECHCG); assay: Post-emerge test, greenhouse herbicide activity screening; details: post-emerge, 14 days after application, rating scale 0-100
How it was run: (§2)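 Rating: 0–100 visual injury, 14 DAA. Application: acetone, 187 l/ha, 15–1000 g ai/ha, flat-fan track sprayer with nozzle 40–45 cm above soil or canopy. Post-emerge runs used 0.25% v/v surfactant on 2–3 leaf plants.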

[6] = test system: ivyleaf morningglory (Ipomoea hederacea, IPOHE); assay: as above; details: post-emerge, 14 days after application, rating scale 0-100
How it was run: as §2

[7] = test system: green foxtail (Setaria viridis, SETVI); assay: as above; details: post-emerge, 14 days after application, rating scale 0-100
How it was run: as §2

[8] = test system: velvetleaf (Abutilon theophrasti, ABUTH); assay: as above; details: post-emerge, 14 days after application, rating scale 0-100
How it was run: as §2

[9] = test system: sicklepod (Cassia obtusifolia, CASOB); assay: as above; details: post-emerge, 14 days after application, rating scale 0-100
How it was run: as §2

[10] = test system: lambsquarters (Chenopodium album, CHEAL); assay: as above; details: post-emerge, 14 days after application, rating scale 0-100
How it was run: as §2

[11] = test system: large crabgrass (Digitaria sanguinalis, DIGSA); assay: as above; details: post-emerge, 14 days after application, rating scale 0-100
How it was run: as §2

[12] = test system: redroot pigweed (Amaranthus retroflexus, AMARE); assay: as above; details: post-emerge, 14 days after application
How it was run: as §2

[13] = test system: johnsongrass (Sorghum halepense, SORHA); assay: as above; details: post-emerge, 14 days after application, rating scale 0-100
How it was run: as §2

[14] = test system: barnyardgrass (Echinochloa crus-galli, ECHCG); assay: Pre-emerge test, greenhouse herbicide activity screening; details: phytotoxicity rating 0-100, 14 days after application
How it was run: as §1

[15] = test system: ivyleaf morningglory (Ipomoea hederacea, IPOHE); assay: as above; details: phytotoxicity rating 0-100, 14 days after application
How it was run: as §1

[16] = test system: green foxtail (Setaria viridis, SETVI); assay: as above; details: phytotoxicity rating 0-100, 14 days after application
How it was run: as §1

[17] = test system: velvetleaf (Abutilon theophrasti, ABUTH); assay: as above; details: phytotoxicity rating 0-100, 14 days after application
How it was run: as §1

[18] = test system: sicklepod (Cassia obtusifolia, CASOB); assay: as above; details: phytotoxicity rating 0-100, 14 days after application
How it was run: as §1

[19] = test system: lambsquarters (Chenopodium album, CHEAL); assay: as above; details: phytotoxicity rating 0-100, 14 days after application
How it was run: as §1

[20] = test system: large crabgrass (Digitaria sanguinalis, DIGSA); assay: as above; details: phytotoxicity rating 0-100, 14 days after application
How it was run: as §1

[21] = test system: johnsongrass (Sorghum halepense, SORHA); assay: as above; details: phytotoxicity rating 0-100, 14 days after application
How it was run: as §1

[22] = test system: redroot pigweed (Amaranthus retroflexus, AMARE); assay: as above; details: phytotoxicity rating 0-100, 14 days after application
How it was run: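 Compounds in acetone were track-sprayed at 187 l/ha, 15–1000 g ai/ha, onto sandy loam pots. Pre-emerge seeds were sown one day before spraying, with surface watering afterwards. Post-emerge plants were at the 2–3 leaf stage and sprayed with 0.25% v/v non-ionic surfactant. Injury was rated 0–100 at 14 days.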

Cn1c(C(F)(F)F)cc(=O)n(-c2ccc(OC(F)(F)F)cc2NC(=O)c2ccc3ccccc3c2)c1=O [2-203]
Pre-emerge Herbicidal Activity CORN ([1]; 63 g ai/ha): 0
Pre-emerge Herbicidal Activity CORN ([1]; 250 g ai/ha): 0
Pre-emerge Herbicidal Activity RICE ([2]; 63 g ai/ha): 10
Pre-emerge Herbicidal Activity RICE ([2]; 250 g ai/ha): 20
phytotoxicity rating CORN (crop damage) ([3]; 63 g ai/ha): 10
phytotoxicity rating CORN (crop damage) ([3]; 250 g ai/ha): 10
phytotoxicity rating RICE (crop damage) ([4]; 63 g ai/ha): 25
phytotoxicity rating RICE (crop damage) ([4]; 250 g ai/ha): 30
phytotoxicity rating ECHCG ([5]; 63 g ai/ha): 10
phytotoxicity rating ECHCG ([5]; 250 g ai/ha): 30
phytotoxicity rating IPOHE ([6]; 63 g ai/ha): 60
phytotoxicity rating IPOHE ([6]; 250 g ai/ha): 95
phytotoxicity rating SETVI ([7]; 63 g ai/ha): 20
phytotoxicity rating SETVI ([7]; 250 g ai/ha): 30
phytotoxicity rating ABUTH ([8]; 63 g ai/ha): 100
phytotoxicity rating ABUTH ([8]; 250 g ai/ha): 100
phytotoxicity rating CASOB ([9]; 63 g ai/ha): 100
phytotoxicity rating CASOB ([9]; 250 g ai/ha): 100
phytotoxicity rating CHEAL ([10]; 63 g ai/ha): 100
phytotoxicity rating CHEAL ([10]; 250 g ai/ha): 100
phytotoxicity rating DIGSA ([11]; 63 g ai/ha): 10
phytotoxicity rating DIGSA ([11]; 250 g ai/ha): 30
phytotoxicity rating AMARE ([12]; 63 g ai/ha, rating scale 0-100 (0 no damage, 100 complete death)): 100
phytotoxicity rating AMARE ([12]; 250 g ai/ha, rating scale 0-100): 100
phytotoxicity rating SORHA ([13]; 63 g ai/ha): 10
phytotoxicity rating SORHA ([13]; 250 g ai/ha): 20
Pre-emerge Herbicidal Activity ECHCG ([14]; 63 g ai/ha): 0
Pre-emerge Herbicidal Activity ECHCG ([14]; 250 g ai/ha): 80
Pre-emerge Herbicidal Activity IPOHE ([15]; 63 g ai/ha): 10
Pre-emerge Herbicidal Activity IPOHE ([15]; 250 g ai/ha): 70
Pre-emerge Herbicidal Activity SETVI ([16]; 63 g ai/ha): 20
Pre-emerge Herbicidal Activity SETVI ([16]; 250 g ai/ha): 70
Pre-emerge Herbicidal Activity ABUTH ([17]; 63 g ai/ha): 75
Pre-emerge Herbicidal Activity ABUTH ([17]; 250 g ai/ha): 100
Pre-emerge Herbicidal Activity CASOB ([18]; 63 g ai/ha): 30
Pre-emerge Herbicidal Activity CASOB ([18]; 250 g ai/ha): 90
Pre-emerge Herbicidal Activity CHEAL ([19]; 63 g ai/ha): 100
Pre-emerge Herbicidal Activity CHEAL ([19]; 250 g ai/ha): 100
Pre-emerge Herbicidal Activity DIGSA ([20]; 63 g ai/ha): 60
Pre-emerge Herbicidal Activity DIGSA ([20]; 250 g ai/ha): 90
Pre-emerge Herbicidal Activity SORHA ([21]; 63 g ai/ha): 0
Pre-emerge Herbicidal Activity SORHA ([21]; 250 g ai/ha): 40
Pre-emerge Herbicidal Activity AMARE ([22]; 63 g ai/ha): 70
Pre-emerge Herbicidal Activity AMARE ([22]; 250 g ai/ha): 100
